# Measured values published in patent publication US9765056B2, “Indole and pyrrole compounds, a process for their preparation and pharmaceutical compositions containing them” (LES LABORATOIRES SERVIER, priority 2013, dated 2017).
# Where a name gives a salt, the structure may show the parent alone.
# Key:
# [1] = molecular target: Bcl-2 protein (histag-Bcl-2, UniProtKB P10415) (Homo sapiens (Human), UniProt P10415); test: Inhibition of Bcl-2 by the fluorescence polarisation technique; assay type: binding; settings: fluorescence polarisation test; method A, or method B where underlined (underlining not visible); read-out: IC50 (nM) Bcl-2 FP
# Chain of Bcl-2 protein (P10415 whole entry): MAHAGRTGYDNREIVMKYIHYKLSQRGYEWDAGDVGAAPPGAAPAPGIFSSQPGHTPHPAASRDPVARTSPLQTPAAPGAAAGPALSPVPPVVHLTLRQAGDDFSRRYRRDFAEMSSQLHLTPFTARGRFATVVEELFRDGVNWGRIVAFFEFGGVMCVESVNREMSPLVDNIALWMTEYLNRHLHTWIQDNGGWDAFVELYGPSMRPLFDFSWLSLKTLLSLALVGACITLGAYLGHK
# From the text: Inhibition of Bcl-2 by the fluorescence polarisation technique
# [2] = test system: RS4;11 leukaemia tumour line; test: In vitro cytotoxicity, Microculture Tetrazolium Assay (MTT); assay type: cell-based; settings: Homo sapiens; RS4;11 cells, 48 hours exposure
# Procedure: The cytotoxicity studies were carried out on the RS4;11 leukaemia tumour line.
# The cells are distributed onto microplates and exposed to the test compounds for 48 hours. The cell viability is then quantified by a colorimetric assay, the Microculture Tetrazolium Assay (Cancer Res., 1987, 47, 939-942).
Compound,IC50 [1] [nM],IC50 [2] [nM]
"COc1cc(-n2nc(C(=O)N(c3ccccc3)c3ccccc3)c3ccccc32)c(C(=O)N2Cc3ccccc3C[C@H]2CN)cc1O [Example 135, 1-{2-[(3S)-3-(Aminomethyl)-1,2,3,4-tetrahydroisoquinoline-2-carbonyl]-4-hydroxy-5-methoxyphenyl}-N,N-diphenyl-1H-indazole-3-carboxamide]",10.4,461
"CCCCN(CCCC)C(=O)c1cn(-c2ccc(NC(=O)CSc3ccccc3)cc2C(=O)N2Cc3ccccc3C[C@H]2CN2CCN(C)CC2)c2ccccc12 [Example 199, N,N-Dibutyl-1-{2-[(3S)-3-[(4-methylpiperazin-1-yl)methyl]-1,2,3,4-tetrahydroisoquinoline-2-carbonyl]-4-[2-(phenylsulphanyl)acetamido]phenyl}-1H-indole-3-carboxamide]",57.7,2360
"Cc1ccc(N(C(=O)c2cn(-c3cc4c(cc3C(=O)N3Cc5ccccc5C[C@H]3CN3CCN(C)CC3)OCO4)c3ccccc23)c2ccc(O)c(Cl)c2)cc1 [Example 63, N-(3-Chloro-4-hydroxyphenyl)-N-(4-methylphenyl)-1-(6-{[(3S)-3-[(4-methylpiperazin-1-yl)methyl]-3,4-dihydroisoquinolin-2(1H)-yl]carbonyl}-1,3-benzodioxol-5-yl)-1H-indole-3-carboxamide hydrochloride]",168,1510
"CN1CCN(C[C@@H]2Cc3ccccc3CN2C(=O)c2cc3c(cc2-n2cc(C(=O)N(c4ccc(O)cc4)c4ccc(O)cc4)c4ccccc42)OCO3)CC1 [Example 41, N,N-bis(4-Hydroxyphenyl)-1-(6-{[(3S)-3-[(4-methylpiperazin-1-yl)-methyl]-3,4-dihydroisoquinolin-2(1H)-yl]carbonyl}-1,3-benzodioxol-5-yl)-1H-indole-3-carboxamide]",3.7,52.2
"Cc1cc(C(=O)N(c2ccc(O)cc2)c2ccc3c(ccn3C)c2)cn1-c1cc2c(cc1C(=O)N1Cc3ccccc3C[C@H]1CN1CCN(C)CC1)OCO2 [Example 90, N-(4-Hydroxyphenyl)-5-methyl-N-(1-methyl-1H-indol-5-yl)-1-(6-{[(3S)-3-[(4-methylpiperazin-1-yl)methyl]-3,4-dihydroisoquinolin-2(1H)-yl]carbonyl}-1,3-benzodioxol-5-yl)-1H-pyrrole-3-carboxamide]",3.6,76.6
"CN1CCN(C[C@@H]2Cc3ccccc3CN2C(=O)c2cc3c(cc2-n2cc(C(=O)N(c4ccccc4)c4ccc(O)cc4)c4ccccc42)OCO3)CC1 [Example 164, N-(4-Hydroxyphenyl)-1-{6-[(3S)-3-[(4-methylpiperazin-1-yl)methyl]-1,2,3,4-tetrahydroisoquinoline-2-carbonyl]-2H-1,3-benzodioxol-5-yl}-N-phenyl-1H-indole-3-carboxamide dihydrochloride]",7.8,132
"NC[C@@H]1Cc2ccccc2CN1C(=O)c1cc(NC(=O)CSc2ccccc2)ccc1-n1nc(C(=O)N(c2ccccc2)c2ccccc2)c2ccccc21 [Example 149, 1-{2-[(3S)-3-(Aminomethyl)-1,2,3,4-tetrahydroisoquinoline-2-carbonyl]-4-[2-(phenylsulphanyl)acetamido]phenyl}-N,N-diphenyl-1H-indazole-3-carboxamide]",21.6,340
"CN1CCN(C[C@@H]2Cc3ccccc3CN2C(=O)c2cc3c(cc2-n2cc(C(=O)N(c4ccc(O)c(F)c4)c4ccc5c(ccn5C)c4)c4ccccc42)OCO3)CC1 [Example 97, N-(3-Fluoro-4-hydroxyphenyl)-N-(1-methyl-1H-indol-5-yl)-1-(6-{[(3S)-3-[(4-methylpiperazin-1-yl)methyl]-3,4-dihydroisoquinolin-2(1H)-yl]carbonyl}-1,3-benzodioxol-5-yl)-1H-indole-3-carboxamide hydrochloride]",6.1,73.2
"Cc1cc(C(=O)N(c2ccccc2)c2ccc(O)cc2)cn1-c1cc(Cl)ccc1C(=O)N1Cc2ccccc2C[C@H]1CN(C)C [Example 13, 1-(5-Chloro-2-{[(3S)-3-[(dimethylamino)methyl]-3,4-dihydroisoquinolin-2(1H)-yl]carbonyl}phenyl)-N-(4-hydroxyphenyl)-5-methyl-N-phenyl-1H-pyrrole-3-carboxamide]",16.2,462
"CCCCN(C(=O)c1cn(-c2cc(OC)c(O)cc2C(=O)N2Cc3ccccc3C[C@H]2CN2CCN(C)CC2)c2ccccc12)c1ccccc1 [Example 194, N-Butyl-1-{4-hydroxy-5-methoxy-2-[(3S)-3-[(4-methylpiperazin-1-yl)-methyl]-1,2,3,4-tetrahydroisoquinoline-2-carbonyl]phenyl}-N-phenyl-1H-indole-3-carboxamide dihydrochloride]",6.7,534

# Now from value to compound, other results behind:
IC50 [1] [nM],Compound,IC50 [2] [nM]
23.5,"O=C(c1cn(-c2cc(Cl)ccc2C(=O)N2Cc3ccccc3C[C@H]2CN2CCOCC2)c2ccccc12)N(c1ccccc1)c1ccc(O)cc1 [Example 186, 1-{5-Chloro-2-[(3S)-3-(morpholin-4-ylmethyl)-1,2,3,4-tetrahydroisoquinoline-2-carbonyl}phenyl]-N-(4-hydroxyphenyl)-N-phenyl-1H-indole-3-carboxamide hydrochloride]",626
5.3,"Cc1ccc(N(C(=O)c2cc(C)n(-c3cc(Cl)ccc3C(=O)N3Cc4ccccc4C[C@H]3CN3CCN(C)CC3)c2)c2ccc(O)cc2)cc1 [Example 91, 1-(5-Chloro-2-{[(3S)-3-[(4-methylpiperazin-1-yl)methyl]-3,4-dihydroisoquinolin-2(1H)-yl]carbonyl}phenyl)-N-(4-hydroxyphenyl)-5-methyl-N-(4-methylphenyl)-1H-pyrrole-3-carboxamide]",172
8.7,"CN1CCN(C[C@@H]2Cc3ccccc3CN2C(=O)c2ccc(Cl)cc2-n2cc(C(=O)N(c3ccc(O)cc3)c3ccc(Cl)cc3)c3ccccc32)CC1 [Example 76, 1-(5-Chloro-2-{[(3S)-3-[(4-methylpiperazin-1-yl)methyl]-3,4-dihydroisoquinolin-2(1H)-yl]carbonyl}phenyl)-N-(4-chlorophenyl)-N-(4-hydroxyphenyl)-1H-indole-3-carboxamide]",151
28.3,"NC[C@@H]1Cc2ccccc2CN1C(=O)c1ccccc1-n1nc(C(=O)N(c2ccccc2)c2ccc(O)cc2)c2ccccc21 [Example 148, 1-{2-[(3S)-3-(Aminomethyl)-1,2,3,4-tetrahydroisoquinoline-2-carbonyl]-phenyl}-N-(4-hydroxyphenyl)-N-phenyl-1H-indazole-3-carboxamide]",1170
6.9,"CC(C)n1ccc2cc(N(C(=O)c3cn(-c4cc5c(cc4C(=O)N4Cc6ccccc6C[C@H]4CN4CCN(C)CC4)OCO5)c4ccccc34)c3ccc(O)cc3)ccc21 [Example 100, N-(4-Hydroxyphenyl)-1-(6-{[(3S)-3-[(4-methylpiperazin-1-yl)methyl]-3,4-dihydroisoquinolin-2(1H)-yl]carbonyl}-1,3-benzodioxol-5-yl)-N-[1-(propan-2-yl)-1H-indol-5-yl]-1H-indole-3-carboxamide]",43.4
17.2,"COc1ccc(C(=O)N2Cc3ccccc3C[C@H]2CN)c(-n2cc(C(=O)N(c3ccccc3)c3ccc(O)cc3)c3ccccc32)c1 [Example 146, 1-{2-[(3S)-3-(Aminomethyl)-1,2,3,4-tetrahydroisoquinoline-2-carbonyl]-5-methoxyphenyl}-N-(4-hydroxyphenyl)-N-phenyl-1H-indole-3-carboxamide]",346
79.7,"Cc1ccc(N(C(=O)c2cn(-c3cc4c(cc3C(=O)N3Cc5ccccc5C[C@H]3CN3CCN(C)CC3)OCO4)c3ccccc23)c2ccc3[nH]ncc3c2)cc1 [Example 68, N-(1H-Indazol-5-yl)-N-(4-methylphenyl)-1-(6-{[(3S)-3-[(4-methylpiperazin-1-yl)methyl]-3,4-dihydroisoquinolin-2(1H)-yl]carbonyl}-1,3-benzodioxol-5-yl)-1H-indole-3-carboxamide hydrochloride]",856
83.8,"CN1CCN(C[C@@H]2Cc3ccccc3CN2C(=O)c2cc3c(cc2-n2cc(C(=O)N(c4ccc(O)c(Cl)c4)c4ccc5c(ccn5C)c4)c4ccccc42)OCO3)CC1 [Example 81, N-(3-Chloro-4-hydroxyphenyl)-N-(1-methyl-1H-indol-5-yl)-1-(6-{[(3S)-3-[(4-methylpiperazin-1-yl)methyl]-3,4-dihydroisoquinolin-2(1H)-yl]carbonyl}-1,3-benzodioxol-5-yl)-1H-indole-3-carboxamide hydrochloride]",652
90,"NC[C@@H]1Cc2ccccc2CN1C(=O)c1ccccc1-n1cc(C(=O)N(c2ccccc2)c2ccccc2)c2ccccc21 [Example 123, 1-{2-[(3S)-3-(Aminomethyl)-1,2,3,4-tetrahydroisoquinoline-2-carbonyl]-phenyl}-N,N-diphenyl-1H-indole-3-carboxamide]",2370
14.5,"Cc1cc(C(=O)N(c2ccc(O)cc2)c2ccc3c(c2)CCN3C)cn1-c1cc2c(cc1C(=O)N1Cc3ccccc3C[C@H]1C)OCO2 [Example 115, N-(4-Hydroxyphenyl)-5-methyl-N-(1-methyl-2,3-dihydro-1H-indol-5-yl)-1-(6-{[(3R)-3-methyl-3,4-dihydroisoquinolin-2(1H)-yl]carbonyl}-1,3-benzodioxol-5-yl)-1H-pyrrole-3-carboxamide hydrochloride]",272
3.1,"COc1cc(-n2cc(C(=O)N(c3ccc(O)cc3)c3ccc(F)cc3)c3ccccc32)c(C(=O)N2Cc3ccccc3C[C@H]2CN2CCN(C)CC2)cc1O [Example 201, N-(4-Fluorophenyl)-1-{4-hydroxy-5-methoxy-2-[(3S)-3-[(4-methylpiperazin-1-yl)methyl]-1,2,3,4-tetrahydroisoquinoline-2-carbonyl]phenyl}-N-(4-hydroxyphenyl)-1H-indole-3-carboxamide dihydrochloride]",124
